Reference: ChEMBL document CHEMBL6127128, “Discovery of the First-in-Class Dual-Target ROCK/HDAC Inhibitor with Potent Antitumor Efficacy in Vivo That Trigger Antitumor Immunity” (J Med Chem, 2024)
Activity calls are given as the source filed them. The rule behind the calls is not given here.

Assays:
MDA-MB-231 [1] = assay: Induction of immunogenic cell death-associated DAMP release in human MDA-MB-231 cells assessed as increase in CRT expression level at 1 to 10 uM incubated for 24 hrs by western blot analysis; type: functional, cell-based; details: dose 1-10 µM
[2] = target: T1, Protein deacetylase HDAC6 (Homo sapiens, UniProt Q9UBN7); assay: Inhibition of HDAC6 (unknown origin) using Ac-Leu-Gly-Lys(Ac)-AMC as substrate preincubated for 5 mins followed by substrate addition for 30 mins and measured following trypsin addition for 30 mins by fluorescence based analysis
T1 sequence (Q9UBN7 whole entry): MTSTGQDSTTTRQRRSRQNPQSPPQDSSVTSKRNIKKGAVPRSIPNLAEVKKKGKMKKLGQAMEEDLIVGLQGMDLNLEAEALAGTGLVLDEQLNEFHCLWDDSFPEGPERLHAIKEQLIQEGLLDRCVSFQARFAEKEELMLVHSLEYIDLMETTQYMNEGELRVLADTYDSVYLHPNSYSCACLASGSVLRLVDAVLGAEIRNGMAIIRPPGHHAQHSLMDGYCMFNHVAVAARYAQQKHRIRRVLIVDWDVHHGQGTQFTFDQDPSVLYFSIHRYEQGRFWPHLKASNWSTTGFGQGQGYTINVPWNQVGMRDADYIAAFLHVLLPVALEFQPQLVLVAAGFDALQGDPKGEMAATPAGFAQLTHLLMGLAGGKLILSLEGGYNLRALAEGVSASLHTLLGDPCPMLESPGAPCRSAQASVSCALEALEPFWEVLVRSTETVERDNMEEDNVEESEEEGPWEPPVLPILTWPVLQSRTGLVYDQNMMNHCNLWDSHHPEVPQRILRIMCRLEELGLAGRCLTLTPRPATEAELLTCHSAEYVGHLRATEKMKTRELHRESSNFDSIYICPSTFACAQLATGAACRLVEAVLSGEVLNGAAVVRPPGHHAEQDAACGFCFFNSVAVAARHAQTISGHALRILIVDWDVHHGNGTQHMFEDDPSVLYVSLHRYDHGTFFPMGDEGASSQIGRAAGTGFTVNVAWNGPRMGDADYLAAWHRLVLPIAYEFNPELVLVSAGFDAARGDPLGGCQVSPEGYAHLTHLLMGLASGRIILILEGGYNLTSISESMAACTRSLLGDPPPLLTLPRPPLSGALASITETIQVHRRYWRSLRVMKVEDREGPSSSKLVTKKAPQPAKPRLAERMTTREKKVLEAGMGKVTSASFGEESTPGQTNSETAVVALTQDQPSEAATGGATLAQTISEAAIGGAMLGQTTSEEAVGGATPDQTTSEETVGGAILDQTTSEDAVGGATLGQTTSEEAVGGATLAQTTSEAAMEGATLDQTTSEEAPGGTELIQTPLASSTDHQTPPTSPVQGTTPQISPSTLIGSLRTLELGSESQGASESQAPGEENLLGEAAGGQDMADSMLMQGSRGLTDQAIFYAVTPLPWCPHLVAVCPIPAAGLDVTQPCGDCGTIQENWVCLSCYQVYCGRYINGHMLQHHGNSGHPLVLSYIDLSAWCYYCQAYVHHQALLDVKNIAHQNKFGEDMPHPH

[3] = Toxicity against Balb/c mouse implanted with mouse 4T1 cells assessed as effect on body weight changes at 25 to 50 mg/kg, po administered daily for 15 days; type: organism-based; details: in vivo, 360 h, dose 25-50 mg/kg, time 15 day
4T1 [4] = assay: Antitumor immunity against mouse 4T1 cells implanted in Balb/c mouse assessed as increase in CD40+ dendritic cells in tumor tissue at 50 mg/kg, po administered daily for 15 days by immunohistochemistry relative to SAHA; type: functional; details: time 15 day
4T1 [5] = assay: Antitumor immunity against mouse 4T1 cells implanted in Balb/c mouse assessed as increase in CD4+ T cells in tumor tissue at 50 mg/kg, po administered daily for 15 days by flow cytometry relative to SAHA; type: functional; details: time 15 day
4T1 [6] = assay: Antitumor immunity against mouse 4T1 cells implanted in Balb/c mouse assessed as increase in CD8+ T cells in tumor tissue at 50 mg/kg, po administered daily for 15 days by flow cytometry relative to SAHA; type: functional; details: time 15 day
MDA-MB-231 [7] = assay: Induction of immunogenic cell death-associated DAMP release in human MDA-MB-231 cells assessed as increase in extracellular HMGB1 release by mesuring increase in HMGB1 level in medium supernatant at 10 uM incubated for 24 hrs by ELISA; type: functional, cell-based
Mus musculus = assay: Induction of immunogenic cell death-associated DAMP release in tumor of Balb/c mouse implanted with mouse 4T1 cells assessed as increase in CRT expression at 25 to 50 mg/kg, po administered daily for 15 days by immunofluorescence analysis; type: functional, organism-based; details: dose 25-50 mg/kg, time 15.0 day
4T1 [8] = assay: Antitumor immunity against mouse 4T1 cells implanted in Balb/c mouse assessed as increase in CD40+ dendritic cells in tumor tissue at 25 mg/kg, po administered daily for 15 days by immunohistochemistry; type: functional, organism-based; details: time 15.0 day
[9] = AUC (0 to infinity) in Balb/c mouse at 1 mg/kg, iv measured for 24 hrs by LC-MS/MS analysis; type: ADME, organism-based; details: in vivo
4T1 [10] = assay: Antitumor immunity against mouse 4T1 cells implanted in Balb/c mouse assessed as increase in CD8+ T cells in tumor tissue at 25 mg/kg, po administered daily for 15 days by flow cytometry; type: functional, organism-based; details: time 15.0 day
MDA-MB-231 [11] = assay: Cytotoxicity against human MDA-MB-231 cells assessed as reduction in cell viability incubated for 72 hrs by SRB assay; type: functional, cell-based; details: MDA-MB-231, 72 h
MDA-MB-231 [12] = assay: Induction of immunogenic cell death-associated DAMP release in human MDA-MB-231 cells assessed as decrease in HMGB1 expression level at 1 to 10 uM incubated for 24 hrs by western blot analysis; type: functional, cell-based; details: dose 1-10 µM
MDA-MB-231 [13] = assay: Induction of immunogenic cell death-associated DAMP release in human MDA-MB-231 cells assessed as increase in CRT expression level by measuring increase in green fluorescence intensity at 1 to 10 uM incubated for 24 hrs by DAPI staining based immunofluorescence analysis; type: functional; details: dose 1-10 µM
[14] = Toxicity against Balb/c mouse implanted with mouse 4T1 cells assessed as effect on morphological changes in lung at 25 to 50 mg/kg, po administered daily for 15 days by Hematoxylin-Eosin staining based analysis; type: organism-based; details: in vivo, 360 h, dose 25-50 mg/kg, time 15 day
[15] = Toxicity against Balb/c mouse implanted with mouse 4T1 cells assessed as effect on morphological changes in liver at 25 to 50 mg/kg, po administered daily for 15 days by Hematoxylin-Eosin staining based analysis; type: organism-based; details: in vivo, 360 h, dose 25-50 mg/kg, time 15 day
[16] = Lipophilicity, log D of the compound at pH 7.4; type: physicochemical; details: buffer
4T1 [17] = assay: Antitumor activity against mouse 4T1 cells implanted in Balb/c mouse assessed as inhibition of tumor growth rate at 25 mg/kg, po administered daily for 15 days; type: functional; details: 4T1, 360 h, time 15 day, read-out: TGI
4T1 [18] = assay: Antitumor immunity against mouse 4T1 cells implanted in Balb/c mouse assessed as increase in CD3+ T cells in tumor tissue at 50 mg/kg, po administered daily for 15 days by flow cytometry relative to SAHA; type: functional; details: time 15 day

O=C(CCCCCCNC(=O)c1cc2cc(-c3cn[nH]c3)ccc2s1)NO
Activity (MDA-MB-231 [1]): Active
IC50 [2]: 0.41 nM
Activity [3]: Non-Toxic
fold change (FC) (4T1 [4]): 2.3
fold change (FC) (4T1 [5]): 1.82
fold change (FC) (4T1 [6]): 1.21
Activity (MDA-MB-231 [7]): Active
Activity (Mus musculus): Active
Activity (4T1 [8]): Active
AUC(0-inf) [9]: 89.3 ng·h/mL
Activity (4T1 [10]): Active
IC50 (MDA-MB-231 [11]): 370 nM
Activity (MDA-MB-231 [12]): Active
Activity (MDA-MB-231 [13]): Active
Activity [14]: Non-Toxic
Activity [15]: Non-Toxic
logD [16]: 3.29
inhibition in vivo at 25 mg/kg (4T1 [17]): 45%
fold change (FC) (4T1 [18]): 1.36
